Laboratory results: patent US20060183800A1, “Methods and fluorinated compositions for treating amyloid-related diseases” (priority 2004, published 2006)

Target: solubilized Aβ40 (Homo sapiens, UniProt P05067)
Test: MS (mass spectrometry) binding assay for Aβ40
Protocol: The test compounds were synthesized and screened by mass spectrometry (“MS”) assays. The MS assay gives data on the ability of compounds to bind to proteins, in this example, to β-amyloid.
In the MS assay for Aβ40, the sample was prepared as an aqueous solution (adding 20% ethanol if necessary to solubilize in water), 200 μM of a test compound and 20 μM of solubilized Aβ40, or 400 μM of a test compound and 40 μM of solubilized Aβ40. The pH value of the sample was adjusted to 7.4 (±0.2) by addition of 0.1% aqueous sodium hydroxide. The solution was then analyzed by electrospray ionization mass spectrometry using a Waters ZQ 4000 mass spectrometer. The sample was introduced by direct infusion at a flow-rate of 25 μL/min within 2 hr. after sample preparation. The source temperature was kept at 70° C. and the cone voltage was 20 V for all the analysis. Data were processed using Masslynx 3.5 software. The MS assay gives data on the ability of compounds to bind to soluble Aβ.

Chain of solubilized Aβ40 (P05067 672-711 limits assumed): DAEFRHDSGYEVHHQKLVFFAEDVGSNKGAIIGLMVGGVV

binding to soluble Aβ40 (200 μM of test compound): 20-44%
binding to soluble Aβ40 (400 μM of test compound): 45-59%
Compound: O=S(=O)(O)CCCNCC(F)(F)F [3-[(2,2,2-trifluoroethyl)amino]-1-propanesulfonic acid]
